Measured values: ChEMBL document CHEMBL1158470, “9-(Arenethenyl)purines as dual Src/Abl kinase inhibitors targeting the inactive conformation: design, synthesis, and biological evaluation” (J Med Chem, 2009)
Active and inactive are the calls of the source. No cut-off for these calls is given here.

What was measured:
K562 = assay: Antiproliferative activity against human K562 cells after 3 days by MTS assay
[1] = Antiproliferative activity against mouse BA/F3 cells after 3 days by MTS assay
[2] = target: Tyrosine-protein kinase ABL1 (Homo sapiens, UniProt P00519)
Description: Inhibition of wild type human Abl kinase by TR-FRET assay

[3] = Clearance in CD rat at 5 mg/kg, iv; type: ADME, organism-based; parameters: dose 5 mg/kg, route intravenous; conditions: in vivo
[4] = Volume of distribution in CD rat at 5 mg/kg, iv; type: ADME, organism-based; parameters: dose 5 mg/kg, route intravenous; conditions: in vivo
[5] = Half life in CD rat at 5 mg/kg, iv; type: ADME, organism-based; parameters: dose 5 mg/kg, route intravenous; conditions: in vivo
[6] = AUC (0 to 24 hrs) in CD rat at 15 mg/kg, po; type: ADME, organism-based; parameters: time < 24 hr, dose 15 mg/kg, route oral; conditions: plasma
[7] = Cmax in CD rat at 15 mg/kg, po; type: ADME, organism-based; parameters: dose 15 mg/kg, route oral; conditions: in vivo
[8] = Tmax in CD rat at 15 mg/kg, po; type: ADME, organism-based; parameters: dose 15 mg/kg, route oral; conditions: in vivo
[9] = Oral bioavailability in CD rat at 15 mg/kg; type: ADME, organism-based; conditions: in vivo
[10] = target: Proto-oncogene tyrosine-protein kinase Src (Homo sapiens, UniProt P12931)
Description: Inhibition of human Src kinase by TR-FRET assay

[11] = Antiproliferative activity against mouse BA/F3 cells expressing Bcr-Abl T315I mutant after 3 days by MTS assay; conditions: BaF3, 72 h
[12] = Antiproliferative activity against mouse BA/F3 cells expressing wild type Bcr-Abl after 3 days by MTS assay
[13] = AUC (0 to 24 hrs) in mouse at 10 mg/kg, po; type: ADME, organism-based; parameters: time < 24 hr, dose 10 mg/kg, route oral; conditions: plasma
[14] = Cmax in mouse at 10 mg/kg, po; type: ADME, organism-based; parameters: dose 10 mg/kg, route oral; conditions: in vivo
[15] = Tmax in mouse at 10 mg/kg, po; type: ADME, organism-based; parameters: dose 10 mg/kg, route oral; conditions: in vivo
[16] = Antiproliferative activity against mouse BA/F3 cells expressing Bcr-Abl L248R mutant after 3 days by MTS assay; conditions: BaF3, 72 h
[17] = Antiproliferative activity against mouse BA/F3 cells expressing Bcr-Abl G250E mutant after 3 days by MTS assay; conditions: BaF3, 72 h
[18] = Antiproliferative activity against mouse BA/F3 cells expressing Bcr-Abl Q252H mutant after 3 days by MTS assay; conditions: BaF3, 72 h
[19] = Antiproliferative activity against mouse BA/F3 cells expressing Bcr-Abl Y253H mutant after 3 days by MTS assay; conditions: BaF3, 72 h
[20] = Antiproliferative activity against mouse BA/F3 cells expressing Bcr-Abl E255K mutant after 3 days by MTS assay; conditions: BaF3, 72 h
BaF3 [21] = assay: Antitumor activity against mouse BA/F3 cells expressing wild type Bcr-Abl xenografted in CB17 SCID mouse assessed as median survival time at 75 mg/kg, po administered on day 3 once daily for 19 days relative to control; type: functional, organism-based; parameters: dose 75 mg/kg
BaF3 [22] = assay: Antitumor activity against mouse BA/F3 cells expressing wild type Bcr-Abl xenografted in CB17 SCID mouse assessed as increase in mouse survival at 75 mg/kg, po administered on day 3 once daily for 19 days relative to control; type: functional, organism-based; parameters: dose 75 mg/kg
[23] = Oral bioavailability in mouse at 10 mg/kg; type: ADME, organism-based; conditions: in vivo
[24] = Antitumor activity against mouse BA/F3 cells expressing wild type Bcr-Abl xenografted in CB17 SCID mouse assessed as median survival time at 10 mg/kg, po administered on day 3 once daily for 19 days; type: functional, BaF3
[25] = Antitumor activity against mouse BA/F3 cells expressing wild type Bcr-Abl xenografted in CB17 SCID mouse assessed as increase in mouse survival at 10 mg/kg, po administered on day 3 once daily for 19 days; type: functional; conditions: BaF3
NIH3T3 [26] = assay: Antitumor activity against in po dosed mouse NIH/3T3 cells expressing Src Y527F mutant xenografted in CD1 nude mouse assessed as tumor shrinkage administered daily for 21 days; type: functional, organism-based
NIH3T3 [27] = assay: Antitumor activity against in mouse NIH/3T3 cells expressing Src Y527F mutant xenografted in CD1 nude mouse assessed as complete tumor regression at 100 mg/kg, po administered daily for 21 days; type: functional, organism-based; parameters: dose 100 mg/kg

Sequence of Proto-oncogene tyrosine-protein kinase Src (P12931 2-536 limits assumed): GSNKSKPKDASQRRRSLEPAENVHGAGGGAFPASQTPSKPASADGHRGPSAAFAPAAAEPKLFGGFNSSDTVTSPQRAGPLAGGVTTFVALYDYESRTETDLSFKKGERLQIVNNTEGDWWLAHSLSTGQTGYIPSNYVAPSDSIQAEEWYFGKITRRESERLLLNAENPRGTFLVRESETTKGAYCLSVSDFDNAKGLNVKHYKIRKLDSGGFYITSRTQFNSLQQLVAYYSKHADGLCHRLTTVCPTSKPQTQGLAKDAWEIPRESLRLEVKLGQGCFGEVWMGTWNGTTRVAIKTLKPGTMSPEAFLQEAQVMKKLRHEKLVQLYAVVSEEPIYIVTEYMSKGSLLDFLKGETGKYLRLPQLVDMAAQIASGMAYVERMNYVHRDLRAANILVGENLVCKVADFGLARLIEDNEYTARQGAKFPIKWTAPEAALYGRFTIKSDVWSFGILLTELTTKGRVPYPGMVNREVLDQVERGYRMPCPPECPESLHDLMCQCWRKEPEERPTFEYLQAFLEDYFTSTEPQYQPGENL
Sequence of Tyrosine-protein kinase ABL1 (P00519 whole entry): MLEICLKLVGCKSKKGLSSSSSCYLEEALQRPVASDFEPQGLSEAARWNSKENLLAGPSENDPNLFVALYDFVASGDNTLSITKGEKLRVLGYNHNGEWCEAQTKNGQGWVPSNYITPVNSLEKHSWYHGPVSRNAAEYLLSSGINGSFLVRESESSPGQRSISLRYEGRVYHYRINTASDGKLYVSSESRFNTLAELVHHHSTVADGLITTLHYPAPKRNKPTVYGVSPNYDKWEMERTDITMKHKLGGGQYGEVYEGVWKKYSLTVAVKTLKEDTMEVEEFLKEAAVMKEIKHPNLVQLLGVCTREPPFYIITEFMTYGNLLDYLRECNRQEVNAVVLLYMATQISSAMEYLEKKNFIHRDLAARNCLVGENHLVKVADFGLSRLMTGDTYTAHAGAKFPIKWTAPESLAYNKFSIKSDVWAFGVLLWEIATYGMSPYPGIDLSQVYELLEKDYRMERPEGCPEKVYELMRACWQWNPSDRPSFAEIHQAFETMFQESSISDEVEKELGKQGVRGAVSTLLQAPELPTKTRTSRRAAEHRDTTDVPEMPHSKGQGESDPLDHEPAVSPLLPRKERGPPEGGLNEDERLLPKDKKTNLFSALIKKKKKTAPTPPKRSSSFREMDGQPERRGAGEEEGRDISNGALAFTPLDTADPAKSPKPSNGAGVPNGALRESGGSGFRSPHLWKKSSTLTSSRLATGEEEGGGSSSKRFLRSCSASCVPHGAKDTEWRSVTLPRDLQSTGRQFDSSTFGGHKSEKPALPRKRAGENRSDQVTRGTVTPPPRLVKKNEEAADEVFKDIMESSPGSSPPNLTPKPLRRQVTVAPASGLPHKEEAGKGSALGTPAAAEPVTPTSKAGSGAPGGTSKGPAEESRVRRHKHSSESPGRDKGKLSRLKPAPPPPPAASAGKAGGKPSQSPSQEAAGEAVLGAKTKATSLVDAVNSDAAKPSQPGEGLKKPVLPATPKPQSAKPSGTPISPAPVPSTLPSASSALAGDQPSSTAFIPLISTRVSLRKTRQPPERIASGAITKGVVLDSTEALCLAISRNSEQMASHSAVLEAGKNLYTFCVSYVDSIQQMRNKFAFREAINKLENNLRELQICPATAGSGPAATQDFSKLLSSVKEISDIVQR

SMILES | IC50 (K562; Homo sapiens, K562, 72 h) [nM] | clearance [3] [mL/min/kg] | Vd [4] [L/kg] | half-life [5] [min] | Cmax [7] [ng/mL] | Tmax [8] [h] | IC50 ([1]; Mus musculus, BaF3, 72 h) [µM] | other results
Cc1ccc(C(=O)Nc2cc(C(C)(C)C)nn2C)cc1/C=C/n1cnc2c(NC3CC3)ncnc21 | 35 |  |  |  |  |  | 9.03 | IC50 [2]: 146 nM
Cc1ccc(NC(=O)c2cccc(C(F)(F)F)c2)cc1/C=C/n1cnc2c(Nc3ccc(P(C)(C)=O)cc3)ncnc21 | 0.95 | 13.2 | 3.54 | 186 | 63 | 1 | 7.6 | AUC(0-t) at 24 h [6]: 146 ng·h/mL; bioavailability [9]: 0.8%
CNc1ncnc2c1ncn2CCc1cc(NC(=O)c2cccc(C(F)(F)F)c2)ccc1C |  |  |  |  |  |  | 9.68 | IC50 (K562; k562): Not Active; IC50 [10]: 300 nM
Cc1ccc(C(=O)Nc2ncc(C(C)(C)C)s2)cc1/C=C/n1cnc2c(NC3CC3)ncnc21 | 292 |  |  |  |  |  | 7.12 | IC50 [10]: 310 nM; IC50 [2]: 267 nM
Cc1ccc(NC(=O)Nc2cccc(C(F)(F)F)c2)cc1/C=C/n1cnc2c(NC3CC3)ncnc21 | > 1000 |  |  |  |  |  |  | IC50 [10]: 517 nM
Cc1ccc(C(=O)Nc2cccc(C(C)(C)C)c2)cc1/C=C/n1cnc2c(NC3CC3)ncnc21 | 22 | 29.8 | 5.31 | 126 | 100 | 1 | 2.55 | AUC(0-t) at 24 h [6]: 297 ng·h/mL; bioavailability [9]: 3.5%
Cc1ccc(C(=O)Nc2cc(-n3ccnc3)cc(C(F)(F)F)c2)cc1/C=C/n1cnc2c(NC3CC3)ncnc21 | 5.4 |  |  |  |  |  | 7.12 | IC50 [11]: 298 nM
Cc1ccc(NC(=O)c2cccc(C(F)(F)F)c2)cc1/C=C/n1cnc2c(NCCCN(C)C)ncnc21 |  |  |  |  |  |  |  | IC50 (K562; k562): Not Active; IC50 ([12]; baf3): Not Active; IC50 ([1]; baf3): Not Active; IC50 [10]: 159 nM; IC50 [2]: 157 nM
Cc1ccc(C(=O)Nc2cc(C(F)(F)F)ccc2F)cc1/C=C/n1cnc2c(NC3CC3)ncnc21 | 68 |  |  |  |  |  | 7.67 | IC50 [2]: 236 nM
Cc1ccc(C(=O)Nc2cccc(C(C)C)c2)cc1/C=C/n1cnc2c(NC3CC3)ncnc21 | 63 |  |  |  |  |  | 8.32 | 
Cc1ccc(C(=O)Nc2cc(N3CCOCC3)cc(C(F)(F)F)c2)cc1/C=C/n1cnc2c(NC3CC3)ncnc21 | 17 |  |  |  |  |  | 2.52 | 
Cc1ccc(C(=O)Nc2cc(C(C)(C)C)on2)cc1/C=C/n1cnc2c(NC3CC3)ncnc21 | 15 | 15 | 4.87 | 222 | 1040 | 1 | > 10 | AUC(0-t) at 24 h [6]: 7540 ng·h/mL; bioavailability [9]: 45%
Cc1cn(-c2cc(NC(=O)c3ccc(C)c(/C=C/n4cnc5c(NC6CC6)ncnc54)c3)cc(C(F)(F)F)c2)cn1 | 4.3 | 1 | 0.78 | 498 | 1750 | 2 | 6.46 | AUC(0-t) at 24 h [6]: 17200 ng·h/mL; AUC(0-t) at 24 h [13]: 6930 ng·h/mL; Cmax [14]: 1020 ng/mL; Tmax [15]: 1 h; bioavailability [9]: 7%; IC50 [11]: 422 nM; IC50 [16]: 64 nM; IC50 [17]: 63 nM; IC50 [18]: 42 nM; IC50 [19]: 44 nM; IC50 [20]: 24 nM
Cc1ccc(C(=O)Nc2cc(N3CCN(C)CC3)cc(C(F)(F)F)c2)cc1/C=C/n1cnc2c(NC3CC3)ncnc21 | 14 |  |  |  |  |  | 0.543 | 
Cc1cn(-c2cc(NC(=O)c3ccc(C)c(Nc4nccc(-c5cccnc5)n4)c3)cc(C(F)(F)F)c2)cn1 |  |  |  |  |  |  |  | Activity (BaF3 [21]): Active; Activity (BaF3 [22]): Active
Cc1ccc(C(=O)Nc2ccc(Cl)c(C(F)(F)F)c2)cc1/C=C/n1cnc2c(NC3CC3)ncnc21 | 69 |  |  |  |  |  | 2.41 | 
Cc1ccc(C(=O)Nc2cc(C(F)(F)F)ccn2)cc1/C=C/n1cnc2c(NC3CC3)ncnc21 | 6.1 | 0.667 | 0.34 | 342 | 23500 | 2 | 4.89 | AUC(0-t) at 24 h [6]: 428000 ng·h/mL; AUC(0-t) at 24 h [13]: 21200 ng·h/mL; Cmax [14]: 3100 ng/mL; Tmax [15]: 2 h; bioavailability [9]: 116%; bioavailability [23]: 100%; MST [24]: 35 days; survival at 10 mg/kg [25]: 75%; Activity (NIH3T3 [26]): Dose-dependent effect; Activity (NIH3T3 [27]): Active; IC50 [11]: 2750 nM
Cc1ccc(C(=O)Nc2cc(C(F)(F)F)ccn2)cc1/C=C/n1cnc2cncnc21 |  |  |  |  |  |  |  | IC50 ([12]; Mus musculus, BaF3, 72 h): 5 nM
Cc1cn(-c2cc(NC(=O)c3ccc(C)c(/C=C/n4cnc5cncnc54)c3)cc(C(F)(F)F)c2)cn1 |  |  |  |  |  |  |  | IC50 ([12]; Mus musculus, BaF3, 72 h): 7 nM

Further lines, with some results ahead:

IC50 (K562; Homo sapiens, K562, 72 h) [nM] | clearance [3] [mL/min/kg] | Vd [4] [L/kg] | half-life [5] [min] | Cmax [7] [ng/mL] | Tmax [8] [h] | SMILES | IC50 ([1]; Mus musculus, BaF3, 72 h) [µM] | other results
95 | 3.17 | 1.08 | 240 | 2610 | 1 | Cc1ccc(NC(=O)c2cccc(C(F)(F)F)c2)cc1/C=C/n1cnc2c(NC3CC3)ncnc21 | 7.86 | AUC(0-t) at 24 h [6]: 32200 ng·h/mL; bioavailability [9]: 40%
67 | 6.33 | 1.6 | 177 |  |  | CNc1ncnc2c1ncn2/C=C/c1cc(NC(=O)c2cccc(C(F)(F)F)c2)ccc1C | > 10 | 
62 |  |  |  |  |  | Cc1ccc(NC(=O)c2cccc(C(F)(F)F)c2)cc1/C=C/n1cnc2c(Nc3ccncn3)ncnc21 | 2.07 | 
2.7 | 8.17 | 1.7 | 144 | 387 | 2 | Cc1ccc(NC(=O)c2cccc(C(F)(F)F)c2)cc1/C=C/n1cnc2c(Nc3cccnc3)ncnc21 | > 10 | IC50 ([12]; baf3): Not Active; AUC(0-t) at 24 h [6]: 3310 ng·h/mL; bioavailability [9]: 11%
3.7 | 16 | 9.01 | 402 | 483 | 6 | Cc1ccc(NC(=O)c2cccc(C(F)(F)F)c2)cc1/C=C/n1cnc2c(Nc3ccncc3)ncnc21 | 0.635 | 
181 |  |  |  |  |  | Cc1ccc(NC(=O)c2cccc(C(F)(F)F)c2)cc1/C=C/n1cnc2c(Nc3ccccn3)ncnc21 | 6.26 | IC50 [10]: 201 nM; IC50 [2]: 243 nM
17 |  |  |  |  |  | Cc1ccc(C(=O)Nc2cccc(C(F)(F)F)c2)cc1/C=C/n1cnc2c(NC3CC3)ncnc21 | 4.35 | 
